Where “and” joins values, the source holds several entries; their conditions need not be identical. Equal values may be shown once. Results filed as inconclusive are left out.
System: Lewis lung carcinoma i.m., BDF1 mice, T/C %
Experiment: NCI In Vivo Anticancer Drug Screen. Data for tumor model Lewis Lung Carcinoma (intramuscular) in B6D2F1 (BDF1) mice
Details: endpoint: mean tumor weight, higher = larger tumour
How it was run: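 Antitumour activity is assessed in transplanted-tumour mice. Endpoint is survival or tumour size, normalised to vehicle-dosed controls (T/C).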

SMILES: CCc1nc(N)nc(N)c1-c1ccc(Cl)cc1
- T/C (dose: 2.0 mg/kg/injection, schedule: Q06HX008 (ip), vehicle: Klucel (hydroxypropylcellulose) (HPC)): 104 % of control
- T/C (dose: 4.0 mg/kg/injection, schedule: Q01DX009 (ip), vehicle: Klucel (hydroxypropylcellulose) (HPC)): 87 % of control
- T/C (dose: 4.0 mg/kg/injection, schedule: Q01DX009 (oral), vehicle: Klucel (hydroxypropylcellulose) (HPC)): 37 % of control
- T/C (dose: 4.0 mg/kg/injection, schedule: Q01DX009 (sc), vehicle: Klucel (hydroxypropylcellulose) (HPC)): 95 % of control
- T/C (dose: 4.0 mg/kg/injection, schedule: Q06HX004 (ip), vehicle: Klucel (hydroxypropylcellulose) (HPC)): 82 % of control
- T/C (dose: 4.0 mg/kg/injection, schedule: Q06HX012 (ip), vehicle: Klucel (hydroxypropylcellulose) (HPC)): 71 % of control
- T/C (dose: 8.0 mg/kg/injection, schedule: Q01DX001 (sc), vehicle: Klucel (hydroxypropylcellulose) (HPC)): 66 % of control
- T/C (dose: 8.0 mg/kg/injection, schedule: Q01DX009 (ip), vehicle: Klucel (hydroxypropylcellulose) (HPC)): 67 % of control
- T/C (dose: 8.0 mg/kg/injection, schedule: Q01DX009 (oral), vehicle: Klucel (hydroxypropylcellulose) (HPC)): 31 % of control
- T/C (dose: 8.0 mg/kg/injection, schedule: Q01DX009 (sc), vehicle: Klucel (hydroxypropylcellulose) (HPC)): 76 % of control
- T/C (dose: 8.0 mg/kg/injection, schedule: Q04DX003 (ip), vehicle: Klucel (hydroxypropylcellulose) (HPC)): 92 % of control
- T/C (dose: 8.0 mg/kg/injection, schedule: Q06HX004 (ip), vehicle: Klucel (hydroxypropylcellulose) (HPC)): 75 % of control
- T/C (dose: 8.0 mg/kg/injection, schedule: Q06HX008 (ip), vehicle: Klucel (hydroxypropylcellulose) (HPC)): 65 % of control and 68 % of control
- T/C (dose: 8.0 mg/kg/injection, schedule: Q06HX012 (ip), vehicle: Klucel (hydroxypropylcellulose) (HPC)): 57 % of control
- T/C (dose: 8.0 mg/kg/injection, schedule: Q08DX002 (ip), vehicle: Klucel (hydroxypropylcellulose) (HPC)): 85 % of control
- T/C (dose: 12.5 mg/kg/injection, schedule: Q01DX011 (ip), vehicle: steriod suspending solution): 65 % of control
- T/C (dose: 16.0 mg/kg/injection, schedule: Q01DX001 (ip), vehicle: Klucel (hydroxypropylcellulose) (HPC)): 71 % of control
- T/C (dose: 16.0 mg/kg/injection, schedule: Q01DX001 (oral), vehicle: Klucel (hydroxypropylcellulose) (HPC)): 84 % of control
- T/C (dose: 16.0 mg/kg/injection, schedule: Q01DX001 (sc), vehicle: Klucel (hydroxypropylcellulose) (HPC)): 75 % of control and 80 % of control
- T/C (dose: 16.0 mg/kg/injection, schedule: Q01DX009 (ip), vehicle: Klucel (hydroxypropylcellulose) (HPC)): 83 % of control and 98 % of control
- T/C (dose: 16.0 mg/kg/injection, schedule: Q01DX009 (oral), vehicle: Klucel (hydroxypropylcellulose) (HPC)): 38 % of control
- T/C (dose: 16.0 mg/kg/injection, schedule: Q01DX009 (sc), vehicle: Klucel (hydroxypropylcellulose) (HPC)): 80 % of control
- T/C (dose: 16.0 mg/kg/injection, schedule: Q04DX003 (ip), vehicle: Klucel (hydroxypropylcellulose) (HPC)): 73 % of control and 78 % of control
- T/C (dose: 16.0 mg/kg/injection, schedule: Q06HX004 (ip), vehicle: Klucel (hydroxypropylcellulose) (HPC)): 84 % of control
- T/C (dose: 16.0 mg/kg/injection, schedule: Q06HX008 (ip), vehicle: Klucel (hydroxypropylcellulose) (HPC)): 58 % of control and 73 % of control
- T/C (dose: 16.0 mg/kg/injection, schedule: Q06HX012 (ip), vehicle: Klucel (hydroxypropylcellulose) (HPC)): 56 % of control
- T/C (dose: 25.0 mg/kg/injection, schedule: Q01DX011 (ip), vehicle: steriod suspending solution): 57 % of control
- T/C (dose: 32.0 mg/kg/injection, schedule: Q01DX001 (ip), vehicle: Klucel (hydroxypropylcellulose) (HPC)): 75 % of control
- T/C (dose: 32.0 mg/kg/injection, schedule: Q01DX001 (oral), vehicle: Klucel (hydroxypropylcellulose) (HPC)): 95 % of control
- T/C (dose: 32.0 mg/kg/injection, schedule: Q01DX001 (sc), vehicle: Klucel (hydroxypropylcellulose) (HPC)): 85 % of control and 94 % of control
- T/C (dose: 32.0 mg/kg/injection, schedule: Q01DX009 (oral), vehicle: Klucel (hydroxypropylcellulose) (HPC)): 32 % of control
- T/C (dose: 32.0 mg/kg/injection, schedule: Q01DX009 (sc), vehicle: Klucel (hydroxypropylcellulose) (HPC)): 71 % of control
- T/C (dose: 32.0 mg/kg/injection, schedule: Q04DX003 (ip), vehicle: Klucel (hydroxypropylcellulose) (HPC)): 76 % of control and 94 % of control
- T/C (dose: 32.0 mg/kg/injection, schedule: Q06HX008 (ip), vehicle: Klucel (hydroxypropylcellulose) (HPC)): 62 % of control
- T/C (dose: 32.0 mg/kg/injection, schedule: Q08DX002 (ip), vehicle: Klucel (hydroxypropylcellulose) (HPC)): 74 % of control
- T/C (dose: 50.0 mg/kg/injection, schedule: Q01DX011 (ip), vehicle: steriod suspending solution): 50 % of control
- T/C (dose: 64.0 mg/kg/injection, schedule: Q01DX001 (ip), vehicle: Klucel (hydroxypropylcellulose) (HPC)): 78 % of control
- T/C (dose: 64.0 mg/kg/injection, schedule: Q01DX001 (oral), vehicle: Klucel (hydroxypropylcellulose) (HPC)): 85 % of control
- T/C (dose: 64.0 mg/kg/injection, schedule: Q01DX001 (sc), vehicle: Klucel (hydroxypropylcellulose) (HPC)): 78 % of control and 81 % of control

— PubChem BioAssay AID272 (DTP/NCI, 2004)
